The source of these data is ChEMBL document CHEMBL5360554, “Optimization of the C2 substituents on the 1,4-bis(arylsulfonamido)naphthalene-N,N'-diacetic acid scaffold for better inhibition of Keap1-Nrf2 protein-protein interaction” (Eur J Med Chem, 2023).

The source made the active and inactive calls. No cut-off for these calls is given here.

For assay [1], the target named is T1, Keap1/Nrf2 (Homo sapiens, UniProt Q14145). Description: Inhibition of Keap1-Nrf2 protein-protein interaction (unknown origin) preincubated for 30 mins followed by Terbium labeled anti-His antibody addition for 30 mins prior to fluorescein labeled-9mer Nrf2 peptide addition and measured after 60 mins by TR-FRET assay. On the technique in general: Time-resolved FRET reads energy transfer from a long-lived donor to a nearby acceptor.
T1 sequence (Q16236 whole entry): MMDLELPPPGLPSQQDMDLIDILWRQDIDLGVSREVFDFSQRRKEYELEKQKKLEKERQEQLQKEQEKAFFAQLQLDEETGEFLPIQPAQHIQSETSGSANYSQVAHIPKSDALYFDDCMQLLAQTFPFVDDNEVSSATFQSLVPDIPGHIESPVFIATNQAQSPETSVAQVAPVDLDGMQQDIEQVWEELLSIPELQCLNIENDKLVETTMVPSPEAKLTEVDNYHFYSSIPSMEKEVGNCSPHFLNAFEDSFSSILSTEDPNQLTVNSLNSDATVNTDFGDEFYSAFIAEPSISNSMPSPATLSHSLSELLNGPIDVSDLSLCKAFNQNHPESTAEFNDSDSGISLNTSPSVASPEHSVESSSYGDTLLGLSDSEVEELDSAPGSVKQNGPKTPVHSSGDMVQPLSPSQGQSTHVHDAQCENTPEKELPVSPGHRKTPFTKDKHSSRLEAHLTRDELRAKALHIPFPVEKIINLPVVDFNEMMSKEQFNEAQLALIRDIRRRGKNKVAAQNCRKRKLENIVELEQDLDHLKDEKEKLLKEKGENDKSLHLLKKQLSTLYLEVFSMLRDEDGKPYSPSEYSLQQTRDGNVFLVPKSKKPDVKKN
T1 sequence (Q14145 whole entry): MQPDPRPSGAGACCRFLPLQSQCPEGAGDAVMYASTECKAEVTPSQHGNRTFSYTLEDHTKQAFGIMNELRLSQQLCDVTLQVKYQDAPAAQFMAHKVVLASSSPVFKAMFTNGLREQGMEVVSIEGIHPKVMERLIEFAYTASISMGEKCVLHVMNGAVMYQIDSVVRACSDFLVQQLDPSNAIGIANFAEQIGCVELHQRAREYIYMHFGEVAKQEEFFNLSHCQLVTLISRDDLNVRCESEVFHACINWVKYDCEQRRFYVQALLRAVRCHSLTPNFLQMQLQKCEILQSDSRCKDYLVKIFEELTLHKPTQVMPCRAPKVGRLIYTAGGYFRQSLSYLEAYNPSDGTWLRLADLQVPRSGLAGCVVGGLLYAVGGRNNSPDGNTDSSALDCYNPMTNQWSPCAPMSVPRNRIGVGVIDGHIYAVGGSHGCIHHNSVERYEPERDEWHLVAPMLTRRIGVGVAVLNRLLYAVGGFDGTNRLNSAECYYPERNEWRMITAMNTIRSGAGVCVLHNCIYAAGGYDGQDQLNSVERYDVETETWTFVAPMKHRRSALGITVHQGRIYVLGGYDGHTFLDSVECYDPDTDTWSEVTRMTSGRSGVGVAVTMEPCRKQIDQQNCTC

Assay [2] addresses T1, Keap1/Nrf2. Description: Inhibition of Keap1-Nrf2 protein-protein interaction (unknown origin) incubated for 34 mins by fluorescence polarization assay. (In general: Fluorescence polarisation rises when a labelled molecule tumbles more slowly, as on binding a larger partner.)
Assay [3] has as its target T2, Keap1/Nrf2 (Homo sapiens) (UniProt Q16236+Q14145). The assay can be described thus: Inhibition of Keap1-Nrf2 protein-protein interaction in human NCM460D cells assessed as fold increase in GSTM3 gene expression at 100 uM by RT-qPCR analysis. It is filed as cell-based. (In general: Quantitative PCR measures a nucleic acid by following its amplification.)
Assay [4] has as its target T2, Keap1/Nrf2 (Homo sapiens). The assay can be described thus: Inhibition of Keap1-Nrf2 protein-protein interaction in human NCM460D cells assessed as fold increase in HMOX1 gene expression at 100 uM by RT-qPCR analysis. It is filed as cell-based.
For assay [5], the target named is T2, Keap1/Nrf2 (Homo sapiens). The assay can be described thus: Inhibition of Keap1-Nrf2 protein-protein interaction in human NCM460D cells assessed as fold increase in NQO1 gene expression at 100 uM by RT-qPCR analysis. It counts as cell-based.
Assay [6] addresses T2, Keap1/Nrf2 (Homo sapiens). The assay can be described thus: Inhibition of Keap1-Nrf2 protein-protein interaction in human NCM460D cells assessed as increase in GSTM3 gene expression at 100 uM by RT-qPCR analysis. It is filed as cell-based.
Assay [7] concerns the target T2, Keap1/Nrf2 (Homo sapiens). Description: Inhibition of Keap1-Nrf2 protein-protein interaction in human NCM460D cells assessed as increase in NQO1 gene expression at 100 uM by RT-qPCR analysis. It is filed as cell-based.
Assay [8] has as its target T2, Keap1/Nrf2 (Homo sapiens). The assay can be described thus: Inhibition of Keap1-Nrf2 protein-protein interaction in human NCM460D cells assessed as increase in HMOX1 gene expression at 100 uM by RT-qPCR analysis. It counts as cell-based.
Assay [9] deals with T2, Keap1/Nrf2 (Homo sapiens). Description: Inhibition of Keap1-Nrf2 protein-protein interaction in human NCM460D cells assessed as fold increase in GSTM3 gene expression at 10 uM by RT-qPCR analysis. It counts as cell-based.
The target in assay [10] is T2, Keap1/Nrf2 (Homo sapiens). The assay can be described thus: Inhibition of Keap1-Nrf2 protein-protein interaction in human NCM460D cells assessed as fold increase in NQO1 gene expression at 10 uM by RT-qPCR analysis. It is filed as cell-based.
In assay [11] the target is T2, Keap1/Nrf2 (Homo sapiens). Description: Inhibition of Keap1-Nrf2 protein-protein interaction in human NCM460D cells assessed as fold increase in HMOX1 gene expression at 10 uM by RT-qPCR analysis. It counts as cell-based.

T2 sequence (Q14145 whole entry, looked up): as the sequence (Q14145 whole entry) above
T2 sequence (Q16236 whole entry, looked up): as the sequence (Q16236 whole entry) above

In general, IC50 refers to the point on the concentration scale where inhibition reaches its midpoint. High values mean weaker potency in that assay, low ones greater potency in that assay. A word on the Ki: it is the dissociation constant of the complex between target and ligand, obtained from inhibition or displacement. A low value points to tighter binding. Turning to `COc1ccc(S(=O)(=O)N(CC(=O)O)c2cc(Sc3ccccc3)c(N(CC(=O)O)S(=O)(=O)c3ccc(OC)cc3)c3ccccc23)cc1`, the half-inhibitory concentration (IC50) at Keap1/Nrf2 [1] came to 0.0058 µM; against Keap1/Nrf2 [2] it was 0.085 µM. In addition, on Keap1/Nrf2 [1], the inhibitory constant (Ki) was determined as 0.0015 µM.
For `COc1ccc(-c2cc(N(CC(=O)O)S(=O)(=O)c3ccc(OC)cc3)c3ccccc3c2N(CC(=O)O)S(=O)(=O)c2ccc(OC)cc2)cc1`, the fold change (FC) in assay [3], in [4] and in assay [5] was 8 each time. Further, the concentration for half-maximal inhibition (IC50) is 0.0131 µM against Keap1/Nrf2 [1] and 0.085 µM at Keap1/Nrf2 [2]. This compound also had a Ki at Keap1/Nrf2 [1] of 0.0049 µM. For the same compound, the inhibition result in assay [6] and in [7] was “Active” in each case. For the same compound, the “HMOX1 gene expression increase (active/not active)” value in [8] is “Active”.
Take `COc1ccc(S(=O)(=O)N(CC(N)=O)c2cc(CCC(=O)O)c(N(CC(N)=O)S(=O)(=O)c3ccc(OC)cc3)c3ccccc23)cc1`: the IC50 on Keap1/Nrf2 [1] is 0.0227 µM; against Keap1/Nrf2 [2], 0.162 µM. Moreover, the affinity at Keap1/Nrf2 [1] corresponds to a Ki of 0.0093 µM.
Regarding `COc1ccc(S(=O)(=O)N(CC(=O)O)c2cc(-c3ccc(C#N)cc3)c(N(CC(=O)O)S(=O)(=O)c3ccc(OC)cc3)c3ccccc23)cc1`, the half-maximal inhibitory concentration (IC50) against Keap1/Nrf2 [1] is 0.0092 µM; against Keap1/Nrf2 [2] it was 0.117 µM. The same compound had an inhibitory constant (Ki) on Keap1/Nrf2 [1] of 0.0031 µM. Also, the inhibition entry in [6] and in assay [7] was “inactive” in each case. The “HMOX1 gene expression increase (active/not active)” value in [8] was “inactive”.
Take `COc1ccc(S(=O)(=O)N(CC(=O)O)c2cc(CCCN3C(=O)c4ccccc4C3=O)c(N(CC(=O)O)S(=O)(=O)c3ccc(OC)cc3)c3ccccc23)cc1`: the fold change (FC) in assay [9], in assay [10] and in [11] was 3 throughout. For the same compound, the IC50 came to 0.0025 µM on Keap1/Nrf2 [1] and 0.077 µM against Keap1/Nrf2 [2]. At Keap1/Nrf2 [1], this compound registered a Ki below 0.0001 µM. Moreover, the inhibition result in [6] and in [7] was “Active” each time. In addition, the “HMOX1 gene expression increase (active/not active)” value in [8] was “Active”.
For the compound `COc1ccc(S(=O)(=O)N(CC(=O)O)c2cc(CCC(=O)NC(C)C)c(N(CC(=O)O)S(=O)(=O)c3ccc(OC)cc3)c3ccccc23)cc1`, the IC50 against Keap1/Nrf2 [1] was 0.0126 µM; against Keap1/Nrf2 [2], 0.102 µM. Affinity on Keap1/Nrf2 [1] was put at a Ki of 0.0046 µM.
Consider `COc1ccc(S(=O)(=O)N(CC(=O)O)c2cc(-c3ccc(N4C(=O)c5ccccc5C4=O)cc3)c(N(CC(=O)O)S(=O)(=O)c3ccc(OC)cc3)c3ccccc23)cc1`, for which the fold change (FC) in assay [9], in assay [10] and in assay [11] was 3 each time. Also, the figures for the half-inhibitory concentration (IC50) against Keap1/Nrf2 [1] and against Keap1/Nrf2 [2] were 0.0071 µM and 0.09 µM, respectively. The same compound had a Ki on Keap1/Nrf2 [1] of 0.0021 µM. Also, the inhibition result in [6] and in [7] was “Active” each time. For the same compound, the “HMOX1 gene expression increase (active/not active)” value in [8] was “Active”.
On to `COc1ccc(S(=O)(=O)N(CC(=O)O)c2cc(CCCN(C)Cc3ccccc3)c(N(CC(=O)O)S(=O)(=O)c3ccc(OC)cc3)c3ccccc23)cc1`, for which, at Keap1/Nrf2 [1], the IC50 turned out to be 0.0736 µM and the affinity corresponds to a Ki of 0.0329 µM.
At Keap1/Nrf2 [1], `COc1ccc(S(=O)(=O)N(CC(=O)O)c2cc(-c3ccccc3)c(N(CC(=O)O)S(=O)(=O)c3ccc(OC)cc3)c3ccccc23)cc1` gave an IC50 of 0.0077 µM and a Ki of 0.0024 µM. Half-maximal inhibition on Keap1/Nrf2 [2] (IC50) required 0.096 µM.
Regarding `COc1ccc(S(=O)(=O)N(CC(=O)O)c2cc(CCC(=O)N3CCOCC3)c(N(CC(=O)O)S(=O)(=O)c3ccc(OC)cc3)c3ccccc23)cc1`, the IC50 amounted to 0.0069 µM on Keap1/Nrf2 [1] and 0.087 µM against Keap1/Nrf2 [2]. On Keap1/Nrf2 [1], this compound displayed an inhibition constant Ki of 0.002 µM. Besides, the inhibition entry in [6] and in [7] was “Active” in each case. Moreover, the “HMOX1 gene expression increase (active/not active)” value in assay [8] was “Active”.
On Keap1/Nrf2 [1], `COc1ccc(S(=O)(=O)N(CC(=O)O)c2cc(CCC(N)=O)c(N(CC(=O)O)S(=O)(=O)c3ccc(OC)cc3)c3ccccc23)cc1` came in with a half-maximal inhibitory concentration (IC50) of 0.0117 µM and an inhibition constant (Ki) of 0.0042 µM. This compound also displayed an IC50 on Keap1/Nrf2 [2] of 0.108 µM.
